Data: PMC10623575, “Discovery of Potent and Selective CB2 Agonists Utilizing a Function-Based Computational Screening Protocol” (ACS Chemical Neuroscience, 2023)
Read-outs that look alike come from different tables or passages of the source.

Key:
CB1 receptor = CB1 receptor (Homo sapiens, UniProt P21554); test: Calcium mobilization assay, agonist mode, CHO expressing CB1 and Gα16; format: cell-based; settings: agonist activity, CHO expressing CB1, mean ± SEM; read-out: CB1 EC50
Protocol: (§1) Chinese hamster ovarian (CHO) cells collected from the American Type Culture Collection were maintained in Ham’s F-12K (Kaighn’s) supplemented with 100 mg/L streptomycin, 100 mg/L penicillin, and 10% fetal bovine serum (FBS) in a humidified atmosphere of 5% CO2 at 37 °C. CHO cells were co-transfected with plasmids encoding CB1 or CB2 and Gα16 by electroporation. To establish stable cell lines, transfected cells were seeded on 10 cm dishes with 40 μg/mL blasticidin and 1 mg/mL G418 in culture medium after 24 h. The selection medium was substituted once every 3 days until colonies formed. A solitary colony was obtained, propagated, and assessed using a calcium mobilization assay to verify the function and expression of the transfected genes.
(§2) 3 × 10^4 cells/well were employed to seed cells onto 96-well plates, which were subsequently incubated throughout the night. […] For antagonist mode, the extra dye was washed out and 50 μL of HBSS with test compounds, DMSO (negative control), or AM630 (positive control) was introduced. […] To be noticed, each experiment has been independently replicated three times, with three repetitions and eight gradients each time.
(§3) The collected data were processed with GraphPad Prism software (GraphPad). […] Means ± SEM were computed utilizing this software. The analyses were evaluated by the Student t test. When the p value is smaller than 0.05, the result is statistically significant.

CB2 receptor = molecular target: T1, CB2 receptor (Homo sapiens, UniProt P34972); test: Calcium mobilization assay, agonist mode, CHO expressing CB2 and Gα16; format: cell-based; settings: for SI, selectivity index for the CB2, SI = EC50(CB1)/EC50(CB2): agonist mode; for CB1 and CB2 biological activity (in words): CB1 and CB2 calcium mobilization assays, up to 10 μM
T1 construct: expressed in transfected cells
T1 sequence (P34972 whole entry): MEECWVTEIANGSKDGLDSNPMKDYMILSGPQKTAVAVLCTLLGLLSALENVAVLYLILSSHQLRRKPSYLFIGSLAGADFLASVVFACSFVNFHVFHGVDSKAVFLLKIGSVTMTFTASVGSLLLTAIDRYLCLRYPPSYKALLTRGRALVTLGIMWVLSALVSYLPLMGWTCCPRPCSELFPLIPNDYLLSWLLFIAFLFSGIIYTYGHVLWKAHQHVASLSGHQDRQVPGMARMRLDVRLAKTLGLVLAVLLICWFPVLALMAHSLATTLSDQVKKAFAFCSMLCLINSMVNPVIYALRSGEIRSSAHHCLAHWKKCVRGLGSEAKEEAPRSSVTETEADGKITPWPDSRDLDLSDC
Protocol: as §1, §2, §3

[1] = agonist activity, CHO expressing CB2, three independent assays, mean ± SEM, read-out: CB2 EC50
[2] = single independent experiment, replicate 1, read-out: CB2 agonist(μM) replicate 1
[3] = single independent experiment, replicate 2, read-out: CB2 agonist(μM) replicate 2
[4] = single independent experiment, replicate 3, read-out: CB2 agonist(μM) replicate3

Sequence of CB1 receptor (P21554 whole entry): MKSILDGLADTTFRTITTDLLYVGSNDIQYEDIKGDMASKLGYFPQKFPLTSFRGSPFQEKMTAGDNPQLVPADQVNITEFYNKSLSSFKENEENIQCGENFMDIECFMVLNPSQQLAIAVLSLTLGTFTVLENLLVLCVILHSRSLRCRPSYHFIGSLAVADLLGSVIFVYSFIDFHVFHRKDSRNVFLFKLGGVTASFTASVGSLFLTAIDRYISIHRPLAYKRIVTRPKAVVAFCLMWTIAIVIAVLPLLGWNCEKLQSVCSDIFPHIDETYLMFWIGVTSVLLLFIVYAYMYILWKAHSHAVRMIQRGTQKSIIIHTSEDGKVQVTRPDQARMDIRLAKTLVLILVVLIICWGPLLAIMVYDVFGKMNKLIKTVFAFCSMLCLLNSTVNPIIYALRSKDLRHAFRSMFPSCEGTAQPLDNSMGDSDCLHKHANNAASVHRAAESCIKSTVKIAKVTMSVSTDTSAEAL

SMILES	EC50 (CB1 receptor)	EC50 (CB2 receptor; [1])	SI, selectivity index for the CB2, SI = EC50(CB1)/EC50(CB2) (CB2 receptor)	EC50 (CB2 receptor; [2])	EC50 (CB2 receptor; [3])	EC50 (CB2 receptor; [4])	CB1 and CB2 biological activity (in words) (CB2 receptor)
CC(C)CN1C(=O)SC(=Cc2ccccc2OCc2ccccc2F)C1=O [Compound 10, 5-(2-((2-Fluorobenzyl)oxy)benzylidene)-3-isobutylthiazolidine-2,4-dione]	> 10 µM	1.6 ± 0.21 µM	>6	1.78 µM	1.18 µM	1.83 µM	
CC(C)N1C(=O)SC(=Cc2ccccc2OCc2cccc(Br)c2)C1=O [Compound 7, 5-(2-((3-Bromobenzyl)oxy)benzylidene)-3-isopropylthiazolidine-2,4-dione]	> 10 µM	> 10 µM					do not show biological activities
CCCN1C(=O)SC(=Cc2ccccc2OCc2ccccc2C#N)C1=O [Compound 3, 2-((2-((2,4-Dioxo-3-propylthiazolidin-5-ylidene)methyl)phenoxy)methyl) Benzo Nitrile]	> 10 µM	> 10 µM					
COc1cc(COc2ccccc2C=C2SC(=O)N(C(C)C)C2=O)cc(OC)c1 [Compound 9, 5-(2-((3,5-Dimethoxybenzyl)oxy)benzylidene)-3-isopropylthiazolidine-2,4-dione]	> 10 µM	> 10 µM					do not show biological activities
COc1ccc(/C=C2\SC(=O)N(CC(C)C)C2=O)cc1OC(=O)C12CC3CC(CC(C3)C1)C2 [Compound 37, 5-((3-Isobutyl-2,4-dioxothiazolidin-5-ylidene)methyl)-2-methoxyphenyl (3r, 5r,7r)-adamantane-1-carboxylate]	> 10 µM	> 10 µM					
CCCCN1C(=O)SC(=Cc2ccccc2OCc2ccccc2C#N)C1=O [Compound 4, 2-((2-((3-Butyl-2,4-dioxothiazolidin-5-ylidene)methyl)phenoxy)methyl)benzo Nitrile]	> 10 µM	> 10 µM					

Next, values leading:

EC50 (CB1 receptor)	EC50 (CB2 receptor; [1])	SI, selectivity index for the CB2, SI = EC50(CB1)/EC50(CB2) (CB2 receptor)	EC50 (CB2 receptor; [2])	EC50 (CB2 receptor; [3])	EC50 (CB2 receptor; [4])	CB1 and CB2 biological activity (in words) (CB2 receptor)	SMILES
> 10 µM	1.58 ± 1.12 µM	>6	0.486 µM	3.82 µM	0.43 µM		CC(C)CN1C(=O)SC(=Cc2ccccc2OC(=O)N2CCOCC2)C1=O [Compound 15, 2-((3-Isobutyl-2,4-dioxothiazolidin-5-ylidene)methyl)phenyl Morpholine-4-carboxylate]
> 10 µM	> 10 µM						COc1ccc(C=C2SC(=O)N(C(C)C)C2=O)cc1OC(=O)c1ccccc1F [Compound 29, 5-((3-Isopropyl-2,4-dioxothiazolidin-5-ylidene)methyl)-2-methoxyphenyl 2-Fluorobenzoate]
> 10 µM	> 10 µM						CC(C)N1C(=O)S/C(=C\c2ccccc2OC(=O)C23CC4CC(CC(C4)C2)C3)C1=O [Compound 19, 2-((3-Isopropyl-2,4-dioxothiazolidin-5-ylidene) Methyl) Phenyl (3r,5r,7r)-Adamantane-1-carboxylate]
> 10 µM	> 10 µM						CC(C)CN1C(=O)SC(=Cc2cccc(OCc3ccccc3C#N)c2)C1=O [Compound 26, 2-((3-((3-Isobutyl-2,4-dioxothiazolidin-5-ylidene)methyl)phenoxy)methyl) Benzonitrile]
> 10 µM	> 10 µM						COc1cc(COc2ccccc2C=C2SC(=O)N(CC(C)C)C2=O)cc(OC)c1 [Compound 11, 5-(2-((3,5-Dimethoxybenzyl)oxy)benzylidene)-3-isobutylthiazolidine-2,4-dione]
> 10 µM	1.78 ± 0.25 µM	>5	1.66 µM	2.26 µM	1.44 µM		CC(C)CN1C(=O)SC(=Cc2ccccc2OC(=O)c2ccccc2F)C1=O [Compound 13, 2-((3-Isobutyl-2,4-dioxothiazolidin-5-ylidene)methyl)phenyl 2-Fluorobenzoate]
